Source: PMC9952374, “De Novo Design of Imidazopyridine-Tethered Pyrazolines That Target Phosphorylation of STAT3 in Human Breast Cancer Cells” (Bioengineering, 2023)

Assays:
breast cancer cells = test system: breast cancer cells; set-up: method as in PMID 33126089; details: read-out: IC50 anti-proliferation against breast cancer cells; cited from earlier work
[1] = test system: IL-6-induced STAT3 phosphorylation in patient-derived HGG cells; set-up: method as in PMID 31361777; details: cited from earlier work
[2] = test system: STAT3 phosphorylation in MCF-7 cells; assay: Western blot of STAT3 phosphorylation, MCF-7; format: cell-based, human
Procedure: (§1) Therefore, in vitro experiments were performed to evaluate the effect of compound 3f on the phosphorylation of STAT3 in MCF-7 and T47D cells, utilizing our laboratory protocol. For this purpose, Western blot analysis was performed after the treatment of MCF-7 and T47D cells with compound 3f (0, 1, 3, 5 μM) and using p-STAT3 (Tyr705), p-STAT3 (Ser727), and STAT3 antibodies for blotting.
(§2) As previously reported, whole-cell lysates from cells treated with compound 3f were prepared to detect protein expression and phosphorylation using a lysis buffer [Tris (20 mM, pH 7.4), NaCl (250 mM), EDTA (2 mM, pH 8.0), Triton X-100 (0.1%), aprotinin (0.01 mg/mL), leupeptin (0.005 mg/mL), phenylmethane sulfonyl fluoride (0.4 mM), and NaVO4 (4 mM)]. To remove insoluble material, lysates were centrifuged at 13,000 rpm for 15 min.
(§3) Equal protein concentrations of cell lysate were resolved on sodium dodecyl sulfate-polyacrylamide gel electrophoresis, followed by transfer to nitrocellulose membranes as reported previously. Incubation was carried out overnight at 4 °C with antibodies after treatment with 5% skim milk. Afterward, the membranes were washed, probed with HRP-conjugated secondary antibodies for 2 h, and then visualized using chemiluminescence.
(§4) Figure 3 The lead compound 3f decreases the phosphorylation of STAT3 in MCF-7 and T47D cells in a concentration (A) and time-dependent (B) manner. MCF-7 and T47D cells were treated with the indicated concentration of 3f for 4 h. MCF-7 and T47D cells were treated with 5 µM of compound for the indicated time intervals. Thereafter, equal amounts of lysates were analyzed by Western blot analysis using antibodies against p-STAT3(Tyr705), p-STAT3(Ser727), or STAT3. The expression of each protein was quantified. β-ACTIN was used as input control.

SK-BR-3 cells = assay: Alamar Blue cell viability assay, SK-BR-3; format: cell-based, human; details: Homo sapiens, SK-BR-3 cell viability
Source text: (§5) The goal herein was to assess the ability of imidazopyridine-tethered pyrazolines to inhibit cell viability in mammary carcinoma cells (using the Alamar Blue assay), since pyridine-fused pyrazoles were previously shown to inhibit cell viability in various breast cancer cells. […] The low chemical stability of thio-urea-based compounds may account for the inactivity of most thiourea-conjugated pyrazolines (excluding 4g) against TNBC cells.
(§6) MCF-7 cells were procured from Procell Life Science and Technology Co. LTD, Wuhan, China. Human breast cancer T47D, BT474, and SK-BR-3 cells were obtained from American Type Culture Collection (Washington, DC, NW, USA). Cells (2000) were cultured in MEM or Leibovitz’s L-15 medium enriched with 2% FBS and maintained in a humidified atmosphere of 5% CO2 at 37 °C. A stock solution of DMSO-dissolved compounds was prepared, and this solution was diluted with culture medium as required. MCF-7 Cells (4 × 10^3) were cultured in 96-well plates for 12 h and then treated for 72 h with compounds at concentrations of […]. Using Alamar Blue, the compounds were evaluated for their inhibitory effects

[3] = test system: nuclear translocation of STAT3 in T47D cells; assay: Immunocytochemistry of STAT3 nuclear translocation, T47D; format: cell-based, human; details: 10 μM for 4 h (method) / 5 μM (Figure 10 legend)
Procedure: (§7) Finally, we attempted to understand the effect of compound 3f on the blocking of pSTAT3 into nuclear functionally since pSTAT3 dimers could enter the nucleus to give transcription. For this purpose, we conducted an immunocytochemistry assay using MCF-7 and T47D cells. […] We also analyzed the distribution of phospho-STAT3 in the nucleus and cytoplasm using fluorescent-labeled antibodies.
(§8) As described earlier, STAT3 phosphorylation in cells was quantified. After compound 3f treatment (10 μM for 4 h), cells were fixed for 20 min with paraformaldehyde (4%). Thereafter, cells were treated with 0.2% Triton X-100 in phosphate-buffered saline for permeabilization, followed by blocking with 5% bovine serum albumin for 1 h. Then, the preparation was incubated overnight at 4 °C with a rabbit polyclonal anti-human STAT3 antibody (dilution, 1:100). […] The slides were mounted and analyzed under an Olympus FluoView FV1000 confocal microscope (Tokyo, Japan).
(§9) Figure 10 The nuclear localization of STAT3 in MCF-7 (A) and T47D (B) cells was inhibited by compound 3f. MCF-7 and T47D cells were treated with the compound 3f (5 μM), and then analyzed for intracellular distribution by immunocytochemistry. […] The fluorescence intensity of p-STAT3 and STAT3 was performed. […]

MCF-7 cells = assay: Alamar Blue cell viability assay, MCF-7; format: cell-based, human; details: MCF-7 cell viability
Source text: as §5, §6
Figure 2 Inhibitory effect of compounds 3f (A), 3e (B), 4g (C), and 3g (D) on the viability of MCF-7 cells. MCF-7 cells were treated with various concentrations of 2-pyrazolines for 72 h and the viability of cells was analyzed by Alamar Blue assays. The results are presented as mean ± S.E.M. of triplicate determinations.

MCF-10A cells = assay: Alamar Blue cell viability assay, normal MCF-10A; format: cell-based; details: Homo sapiens, normal MCF-10A cell viability
TNBC cells = assay: Effect against TNBC cells; format: cell-based; details: in words
Source text: as §5

[4] = test system: STAT3 phosphorylation in T47D cells; assay: Western blot of STAT3 phosphorylation, T47D; format: cell-based, human
Procedure: as §1, §2, §3, §4

BT-474 cells = assay: Alamar Blue cell viability assay, BT-474; format: cell-based, human
Source text: as §5, §6

[5] = test system: nuclear translocation of STAT3 in MCF-7 cells; assay: Immunocytochemistry of STAT3 nuclear translocation, MCF-7; format: cell-based, human; details: MCF-7, immunocytochemistry, 10 μM for 4 h (method) / 5 μM (Figure 10 legend)
Procedure: as §7, §8, §9

T47D cells = assay: Alamar Blue cell viability assay, T47D; format: cell-based, human
Source text: as §5, §6

[6] = test system: phospho-STAT3 in hepatocellular carcinoma cells; set-up: method as in PMID 30261753; details: cited from earlier work
[7] = MCF-7, 5 µM, indicated time intervals
[8] = T47D, 5 µM, indicated time intervals

In the case of `COc1cc(Nc2cc(-c3ccnn3C)cc3cc(C(C)=O)oc23)cc(OC)c1` [Compound C6], the IC50 (breast cancer cells) is listed as 0.16 µM.
In the case of `CC(C)CCc1cc(-c2ccc(Br)cc2)n(-c2ccc(S(N)(=O)=O)cc2)n1` [MNS1-Leu], the “Akt, STAT1, JAK2, or ERK1/2 phosphorylation” value [1] is listed as “without adversely affecting” and the “IL-6-induced STAT3 phosphorylation” value [1] is listed as “inhibited”.
With `Cc1ccc2nc(C)c(C3=NN(C(=O)CN4CCN(c5cccc(Cl)c5Cl)CC4)C(c4cccc([N+](=O)[O-])c4)C3)n2c1` (stereo not shown) [Compound 3f, 2-(4-(2,3-Dichlorophenyl)piperazin-1-yl)-1-(3-(2,6-dimethylimidazo[1,2-a]pyridin-3-yl)-5-(3-nitrophenyl)-4,5-dihydro-1H-pyrazol-1-yl)ethanone] the “phosphorylation level of STAT3 at Ser727, dose dependence” value ([2]; MCF-7, 0, 1, 3, 5 μM, 4 h) was “reduced the phosphorylation level”, the “phosphorylation level of STAT3 at Tyr705, dose dependence” value ([2]; MCF-7, 0, 1, 3, 5 μM, 4 h) was “reduced the phosphorylation level” and the “total STAT3 protein expression” value ([2]; MCF-7, 0, 1, 3, 5 μM, 4 h) was “without affecting the total STAT3 protein expression”. The “phosphorylation of STAT3 at Ser727, time dependence” value [2, 7] was “reduced the phosphorylation”, the “phosphorylation of STAT3 at Tyr705, time dependence” value [2, 7] was “reduced the phosphorylation” and the IC50 (SK-BR-3 cells) was over 100 µM. For the same molecule, the “nuclear translocation of STAT3” value [3] was “inhibited the nuclear translocation”, the “nuclear translocation of pSTAT3” value [3] was “block the nuclear translocation” and the IC50 (MCF-7 cells; Homo sapiens, MCF7, 72 h) was 9.2 µM. The IC50 (MCF-7 cells; 72 h) was 9.27 ± 0.97 µM, the IC50 (MCF-10A cells) was over 100 µM and the melting point was 122 to 124 °C. For the same molecule, the “effect against TNBC cells” value (TNBC cells) was “significant effect”, the “phosphorylation level of STAT3 at Ser727, dose dependence” value ([4]; T47D, 0, 1, 3, 5 μM, 4 h) was “reduced the phosphorylation level” and the “phosphorylation level of STAT3 at Tyr705, dose dependence” value ([4]; T47D, 0, 1, 3, 5 μM, 4 h) was “reduced the phosphorylation level”. The “total STAT3 protein expression” value ([4]; T47D, 0, 1, 3, 5 μM, 4 h) was “without affecting the total STAT3 protein expression”, the “phosphorylation of STAT3 at Ser727, time dependence” value [4, 8] was “reduced the phosphorylation” and the “phosphorylation of STAT3 at Tyr705, time dependence” value [4, 8] was “reduced the phosphorylation”. For the same molecule, the IC50 (BT-474 cells; Homo sapiens, BT-474 cell viability, Alamar Blue) was 13.9 ± 1.32 µM, the “viability of BT-474 cells” value (BT-474 cells; in words) was “inhibited in a dose-dependent manner” and the “nuclear translocation of STAT3” value [5] was “inhibited the nuclear translocation”. For the same molecule, the “nuclear translocation of pSTAT3” value [5] was “block the nuclear translocation”, the IC50 (T47D cells; Homo sapiens, T47D cell viability, Alamar Blue) was 23.5 ± 1.25 µM and the “viability of T47D cells” value (T47D cells; in words) was “inhibited in a dose-dependent manner”.
In the case of `COc1cc(-c2cc3ccccc3[nH]2)[nH]c1-c1nc2cc(Br)cnc2[nH]1` [compound 16], the “level of phospho-STAT3 and downstream signaling cascades” value [6] is given as “reduce the level”.
